Reference: patent publication US7875607B2, “7,8-bicycloakyl-chroman derivatives” (Ampere Life Sciences, Inc., priority 2004, dated 2011)

Experiments:
Format in all cases: cell-based
[1] = tested on: LTB4 release from MPRO cell line; assay: LTB4-cell assay; conditions: Mus musculus; differentiated MPRO cells, 1 μM A23187, 1 hour; read-out: EC50, inhibition of LTB4
In short: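 Mouse MPRO cells differentiated 72 hours with 10 μM all-trans retinoic acid, then stimulated 1 hour at 37° C with 1 μM A23187 plus compound (5 concentrations from 10 μM, quadruplicate). Supernatant LTB4 measured by competitive EIA; unstimulated cells as negative control.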

[2] = tested on: ELAM (E-selectin) expression in endothelial cells; assay: Cell-ELAM assay; conditions: 10 μg/ml LPS and 100 pg/ml IL-1β, 6 hours
Text: In vitro cell-based assays for inflammation are well known in the art, for example e-selectin (also named Endothelial Leukocyte Adhesion Molecule or ELAM) or C-reactive protein (CRP). The ELAM assay measures in vitro activity of the test compounds in reducing expression of ELAM in activated endothelial cells. Briefly, endothelial cells are […] by adding known activators such as lipopolysaccharides, TNF or IL-1, alone or in some combination. Activated cells produce ELAM, which can be measured using, for example, an E-selectin monoclonal antibody-based ELISA assay. Similarly the CRP assay measures in vitro activity of test compounds in reducing expression of CRP in Human Hep3B epithelial cells. The activated cells produce CRP, which can be measured with a CRP ELISA assay.
Endothelial-Leukocyte Adhesion Molecule (ELAM), also known as E-selectin, was expressed on the surface of endothelial cells. In this assay, lipopolysaccharide (LPS) and IL-1β were used to stimulate the expression of ELAM; test agents were tested for their abilities to reduce this expression, in accordance with studies showing that reduction of leukocyte adhesion to endothelial cell surface was associated with decreased cellular damage (e.g., Takada, M., Et al., Transplantation 64: 1520-25, 1997; Steinberg, J. B., et al., J. Heart Lung Trans. 13:306-313, 1994).
Endothelial cells may be selected from any of a number of sources and cultured according to methods known in the art; including, for example, coronary artery endothelial cells, human brain microvascular endothelial cells (HBMEC; Hess, D. C., et al., Neurosci. Lett. 213(1): 37-40, 1996), or lung endothelial cells. Cells were conveniently cultured in 96-well plates. Cells were stimulated by adding a solution to each well containing 10 μg/ml LPS and 100 pg/ml IL-1β for 6 hours in the presence of test agent (specific concentrations and time may be adjusted depending on the cell type) Treatment buffer was removed and replaced with pre-warmed Fixing Solution® (100 μl/well) for 25 minutes at room temperature. Cells were then washed 3×, then incubated with Blocking Buffer (PBS+2% FBS) for 25 minutes at room temperature. Blocking Buffer containing Monoclonal E-Selectin Antibody (1:750, Sigma Catalog # S-9555) was added to each well. Plates were sealed and stored at 4° overnight. Plates were washed 4× with 160 μL Blocking Buffer per well. Second Antibody-HRP diluted 1:5000 in Blocking Buffer was then added (100 μL/well), and plates were incubated at room temperature (protected from light) for two hours. Plates were then washed 4× with Blocking Buffer before addition of 100 μL of ABTS Substrate solution at room temperature (Zymed, Catalog # 00-2024). Wells were allowed to develop for 35 minutes, before measurement at 402 nm in a Fluoroskan® Reader with shake program for 10 seconds. Positive results were recorded as a decrease in ELAM concentration in tested wells, as compared to control wells.

[3] = tested on: dopaminergic neuronal cell line; assay: High glutamate-induced oxidative stress assay (HGOS); conditions: Mus musculus; 30 mM glutamate, 16 hrs; read-out: EC50, protection against HGOS cell injury and cell death
In short: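 Mouse dopaminergic cells (passage ≤ p11) were grown 72 h at 33 °C, washed in HBSS, then exposed 16 h at 37 °C to compounds in DMEM-No Glu with 1 mM glucose and 30 mM glutamate. Surviving cells were stained 30 min with 5 μM Cell Tracker Green and fluorescence read at 485/538 nm.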

| SMILES | EC50 [1] | EC50 [2] | EC50 [3] |
| --- | --- | --- | --- |
| CC1(CCCCl)CCc2cc(O)c3c(c2O1)C1CCC3C1 (centres unmarked) [2-(3-Chloro-propyl)-2-methyl-3,4,7,8,9,10-hexahydro-7,10-methano-2H-benzo[h]chromen-6-ol] | ≤ 5 µM | ≤ 30 µM | ≤ 1 µM |
| CC1(C)C=Cc2cc(O)c3c(c2O1)C1CCC3CC1 [2,2-Dimethyl-7,8,9,10-tetrahydro-7,10-ethano-2H-benzo[h]chromen-6-ol] | ≤ 5 µM | – | ≤ 1 µM |
| CC1(C)CCc2cc(O)c3c(c2O1)C1CCC3CC1 [2,2-Dimethyl-3,4,7,8,9,10-hexahydro-7,10-ethano-2H-benzo[h]chromen-6-ol] | ≤ 5 µM | ≤ 30 µM | – |
| CC(C)=CCc1c(O)c2c(c3c1CCC(C)(C)O3)C1CCC2C1 (centres unmarked) [2,2-Dimethyl-5-(3-methyl-but-2-enyl)-3,4,7,8,9,10-hexahydro-7,10-methano-2H-benzo[h]chromen-6-ol] | – | ≤ 30 µM | ≤ 1 µM |
| CC(C)CSCCCC1(C)CCc2cc(O)c3c(c2O1)C1CCC3C1 (centres unmarked) [2-(3-isobutylsulfanyl-propyl)-2-methyl-3,4,7,8,9,10-hexahydro-7,10-methano-2H-benzo[h]chromen-6-ol] | ≤ 5 µM | ≤ 30 µM | ≤ 1 µM |
| CC1(CCCSc2nccs2)CCc2cc(O)c3c(c2O1)C1CCC3C1 (centres unmarked) [2-Methyl-2-[3-(thiazol-2-ylsulfanyl)-propyl]-3,4,7,8,9,10-hexahydro-7,10-methano-2H-benzo[h]chromen-6-ol] | ≤ 5 µM | ≤ 30 µM | ≤ 1 µM |
| CC(C)CCc1c(O)c2c(c3c1CCC(C)(C)O3)C1CCC2C1 (centres unmarked) [2,2-Dimethyl-5-(3-methyl-butyl)-3,4,7,8,9,10-hexahydro-7,10-methano-2H-benzo[h]chromen-6-ol] | – | ≤ 30 µM | ≤ 1 µM |
